From the supplement of paper PMC10307832

Columns and labels:
Assay in all cases: relative viability (nuclei count vs DMSO), 5 days (fraction); higher = more cells survive
[1] = compound: C1=CC=C(C(=C1)C2=CC=C(C=C2)C3=CSC4=C3C(=C(C(=O)N4)C#N)O)O
Procedure, shortened: (§1)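 For viability, nuclei in each treated well were divided by nuclei in vehicle wells and the median across plates was taken. Lung cancer cell lines in 1536-well plates were pinned with five library-drug doses (not always all listed) spaced by √10, cultured 5 days without medium change, and imaged at 4× after Hoechst staining, with plates passing only at control CV below 25% and at least one doubling.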

TGX 221 = compound: CC1=CN2C(=O)C=C(N=C2C(=C1)C(C)NC3=CC=CC=C3)N4CCOCC4 [TGX 221]
Procedure, shortened: as §1

Ricolinostat = compound: O=C(CCCCCCNC(=O)c1cnc(N(c2ccccc2)c2ccccc2)nc1)NO [Ricolinostat]
Procedure, shortened: as §1

TGX 221 + Dasatinib = compound: CC1=CN2C(=O)C=C(N=C2C(=C1)C(C)NC3=CC=CC=C3)N4CCOCC4 [TGX 221] + Cc1nc(Nc2ncc(C(=O)Nc3c(C)cccc3Cl)s2)cc(N2CCN(CCO)CC2)n1 [Dasatinib] (partner 0.075 µM)
Procedure, shortened: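 Cells from lung cancer lines were seeded into 1536-well plates and, one day later, dosed by pin tool. Treatments were either a single drug or a fixed dose of an anchor drug with five library-drug doses (not always all listed) in √10 steps. After 5 days, nuclei were stained in a one-step fixation (final 0.05% Triton X-100, 1% formaldehyde, 1 ug/ml Hoechst) and counted on 4× images, and relative viability is the treated-to-vehicle nuclei ratio, as the median of duplicate plates.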

| Cell Line | relative viability ([1]; 0.08 µM) | relative viability ([1]; 0.253 µM) | relative viability ([1]; 0.8 µM) | relative viability ([1]; 2.53 µM) | relative viability ([1]; 8 µM) | relative viability (TGX 221; 0.08 µM) | relative viability (TGX 221; 0.253 µM) | relative viability (TGX 221; 0.8 µM) | relative viability (TGX 221; 2.53 µM) | relative viability (TGX 221; 8 µM) | relative viability (Ricolinostat; 0.08 µM) | relative viability (Ricolinostat; 0.253 µM) | relative viability (Ricolinostat; 0.8 µM) | relative viability (Ricolinostat; 2.53 µM) | relative viability (TGX 221 + Dasatinib; first compound 0.08 µM) | relative viability (TGX 221 + Dasatinib; first compound 0.253 µM) | relative viability (TGX 221 + Dasatinib; first compound 0.8 µM) | relative viability (TGX 221 + Dasatinib; first compound 2.53 µM) | relative viability (TGX 221 + Dasatinib; first compound 8 µM) |
| --- | --- | --- | --- | --- | --- | --- | --- | --- | --- | --- | --- | --- | --- | --- | --- | --- | --- | --- | --- |
| NCI-H358 | 0.905 | 0.937 | 1.04 | 0.907 | 0.716 | 0.914 | 0.88 | 0.914 | 1.02 | 0.756 | 0.726 | 0.914 | 1.05 | 1.04 | 0.158 | 0.169 | 0.146 | 0.165 | 0.158 |
| NCI-H1944 | 0.902 | 1.05 | 0.94 | 0.965 | 0.844 | 0.82 | 0.915 | 0.911 | 0.883 | 0.851 | 0.835 | 1.03 | 0.876 | 0.692 | 0.225 | 0.202 | 0.228 | 0.206 | 0.181 |
| 201T | 0.945 | 0.964 | 0.932 | 0.94 | 1.02 | 0.911 | 0.959 | 0.979 | 0.865 | 0.876 | 0.876 | 0.978 | 1.02 | 0.93 | 0.596 | 0.584 | 0.54 | 0.508 | 0.541 |
| NCI-H647 | 0.825 | 1 | 0.903 | 0.892 | 0.707 | 0.856 | 0.809 | 0.889 | 0.738 | 0.621 | 0.745 | 0.903 | 0.867 | 0.712 | 0.189 | 0.145 | 0.15 | 0.163 | 0.136 |
| NCI-H441 | 0.928 | 1.2 | 1.22 | 1.12 | 0.63 | 0.952 | 0.955 | 1.04 | 1.08 | 1.06 | 0.793 | 0.972 | 1.01 | 0.892 | 0.534 | 0.597 | 0.59 | 0.609 | 0.661 |
| PC-3 [JPC-3] | 0.898 | 1.11 | 0.959 | 1.08 | 0.944 | 0.971 | 1.05 | 1.04 | 0.998 | 1.03 | 0.801 | 0.977 | 1.01 | 0.883 | 0.893 | 0.934 | 1.02 | 0.93 | 0.925 |
| NCI-H2126 | 0.943 | 1.09 | 1 | 0.963 | 0.979 | 0.945 | 0.989 | 0.968 | 0.837 | 0.944 | 0.718 | 1.01 | 0.989 | 0.969 | 0.512 | 0.61 | 0.615 | 0.578 | 0.585 |
| HCC-15 | 0.958 | 1.14 | 1.04 | 1.04 | 0.904 | 0.945 | 0.965 | 0.9 | 0.916 | 0.969 | 0.847 | 0.94 | 0.983 | 0.938 | 0.595 | 0.575 | 0.657 | 0.564 | 0.608 |
